In patent US6043252A, “Carboline derivatives” (Icos Corporation, priority 1998, dated 2000):
No end group written: not given here.

Key:
[1] = test system: conscious spontaneously hypertensive rats (SHRs); test: Hypotensive effect in conscious spontaneously hypertensive rats; type: in vivo, rat; settings: 5 mg/kg orally in 5% DMF and 95% olive oil, AUC from 0 to 5 hours
Method: The hypotensive effects of compounds according to the invention as identified in Table 2 were studied in conscious spontaneously hypertensive rats (SHRs). The compounds were administered orally at a dose of 5 mg/kg in a mixture of 5% DMF and 95% olive oil. Blood pressure was measured from a catheter inserted in the carotid artery and recorded for five hours after administration. The results are expressed as Area Under the Curve (AUC from 0 to 5 hours, mmhg.hour) of the fall in blood pressure over time.

[2] = test system: Rat aortic smooth muscle cells (RSMC); test: cGMP level measurements in rat aortic smooth muscle cells stimulated with ANF; type: cell-based; settings: compound 30 minutes at 37° C., then ANF (100 nM) 10 minutes, dose giving half of the stimulation at saturating concentrations
Method: Rat aortic smooth muscle cells (RSMC), prepared according to Chamley et al., Cell Tissue Res., 177, 503-522 (1977), were used between the 10th and 25th passage at confluence in 24-well culture dishes. Culture media was aspirated and replaced with PBS (0.5 ml) containing the compound tested at the appropriate concentration. After 30 minutes at 37° C., particulates guanylate cyclase was stimulated by addition of ANF (100 nM) for 10 minutes. At the end of incubation, the medium was withdrawn, and two extractions were performed by addition of 65% ethanol (0.25 ml). The two ethanolic extracts were pooled and evaporated until dryness, using a Speed-vac system. CGMP was measured after acetylation by scintillation proximity immunoassay (AMERSHAM). The EC50 values are expressed as the dose-giving half of the stimulation at saturating concentrations.

[3] = molecular target: human recombinant PDE5 (Homo sapiens, UniProt O76074); test: Inhibitory effect on cGMP-PDE (one-step PDE5 assay); type: biochemical; settings: 0.15 μM 8-[H^3 ]-cGMP, 2% DMSO, 30 minutes
Method: CGMP-PDE activity of compounds of the present invention was measured using a one-step assay adapted from Wells et al., Biochim. Biophys. Acta, 384, 430 (1975). The reaction medium contained 50 mM Tris-HCl, pH 7.5, 5 mM magnesium acetate, […] 51-Nucleotidase, 1 mM EGTA, and 0.15 μM 8-[H^3 ]-cGMP. The enzyme used was a human recombinant PDE5 (ICOS Corp., Bothell, Wash.).
Compounds of the invention were dissolved in DMSO finally present at 2% in the assay.

[4] = test system: MED; settings: clinical; oral, sublingual, intraurethral, i.c. or topical; cited from earlier work
[5] = test system: PDE6; settings: cited from earlier work

## CC(=O)Nc1ccc(/C=C/C(=O)N2CCc3c([nH]c4ccccc34)C2c2ccc3c(c2)OCO3)cc1 (stereo not drawn) [Example 14, (E)-N-[4-[3-Oxo-3-(1-(3,4-methylenedioxyphenyl)-1,3,4,9-tetrahydro-β-carbolin-2-yl)propenyl]phenyl]acetamide]
[1]
  SHR AUC PO (Area Under the Curve of the fall in blood pressure over time): 128 mmHG · h
[2]
  EC50: 450 nM
[3]
  IC50: 5 nM

## Nc1ccc(/C=C/C(=O)N2CCc3c([nH]c4ccccc34)C2c2ccc3c(c2)OCO3)cc1 (stereo not drawn) [Example 25, (E)-1-[1-(3,4-Methylenedioxyphenyl)-1,3,4,9-tetrahydro-β-carbolin-2-yl]-3-(4-aminophenyl)propene-1-one]
[1]
  SHR AUC PO (Area Under the Curve of the fall in blood pressure over time): 72 mmHG · h
[2]
  EC50: 300 nM
[3]
  IC50: 72 nM

## O=C(/C=C/c1ccc([N+](=O)[O-])cc1)N1CCc2c([nH]c3ccccc23)C1c1ccc2c(c1)OCO2 (stereo not drawn) [Example 26, (E)-1-[1-(3,4-Methylenedioxyphenyl)-1,3,4,9-tetrahydro-β-carbolin-2-yl]-3-(4-nitrophenyl)propene-1-one]
[1]
  SHR AUC PO (Area Under the Curve of the fall in blood pressure over time): 102 mmHG · h

## COC(=O)c1ccc(/C=C/C(=O)N2CCc3c([nH]c4ccccc34)C2c2ccc3c(c2)OCO3)cc1 (stereo not drawn) [Example 28, (E)-4-[3-Oxo-3-[1-(3,4-methylenedioxyphenyl)-1,3,4,9-tetrahydro-β-carbolin-2-yl]-propenyl]benzoic Acid, Methyl Ester]
[1]
  SHR AUC PO (Area Under the Curve of the fall in blood pressure over time): 114 mmHG · h
[2]
  EC50: 300 nM
[3]
  IC50: 55 nM

## O=C(O)c1ccc(/C=C/C(=O)N2CCc3c([nH]c4ccccc34)C2c2ccc3c(c2)OCO3)cc1 (stereo not drawn) [Example 31, (E)-4-[3-Oxo-3-[1-(3,4-methylenedioxyphenyl)-1,3,4,9-tetrahydro-β-carbolin-2-yl]-propenyl]benzoic acid]
[1]
  SHR AUC PO (Area Under the Curve of the fall in blood pressure over time): 86 mmHG · h
[2]
  EC50: 1000 nM
[3]
  IC50: 4 nM

## CC(C)C(=O)Nc1ccc(/C=C/C(=O)N2CCc3c([nH]c4ccccc34)C2c2ccc3c(c2)OCO3)cc1 (stereo not drawn) [Example 55, (E)-N-[4-[3-Oxo-3-(1-(3,4-methylenedioxyphenyl)-1,3,4,9-tetrahydro-β-carbolin-2-yl)propenyl]phenyl]isobutyramide]
[1]
  SHR AUC PO (Area Under the Curve of the fall in blood pressure over time): 97 mmHG · h
[2]
  EC50: 400 nM
[3]
  IC50: 40 nM

## CN(C)CCOc1ccc(/C=C/C(=O)N2CCc3c([nH]c4ccccc34)C2c2ccc3c(c2)OCO3)cc1 (stereo not drawn) [Example 61, (E)-1-[1-(3,4-Methylenedioxyphenyl)-1,3,4,9-tetrahydro-β-carbolin-2-yl]-3-[4-(2-dimethylaminoethoxy)phenyl]propene-1-one]
[1]
  SHR AUC PO (Area Under the Curve of the fall in blood pressure over time): 95 mmHG · h
[2]
  EC50: 1800 nM
[3]
  IC50: 20 nM

## O=C(/C=C/c1ccccc1)N1CCc2c([nH]c3ccccc23)C1c1ccc2c(c1)CCO2 (stereo not drawn) [Example 112, (E)-1-[1-(2,3-Dihydrobenzofuran-5-yl)-1,3,4,9-tetrahydro-β-carbolin-2-yl]-3-phenylpropene-1-one]
[1]
  SHR AUC PO (Area Under the Curve of the fall in blood pressure over time): 71 mmHG · h

## CN(C)CCOc1ccc(/C=C/C(=O)N2CCc3c([nH]c4ccccc34)C2c2ccc3c(c2)CCO3)cc1 (stereo not drawn) [Example 122]
[1]
  SHR AUC PO (Area Under the Curve of the fall in blood pressure over time): 76 mmHG · h

## CN(C)CCOc1ccc(/C=C/C(=O)N2CCc3c([nH]c4ccccc34)[C@H]2c2ccc3c(c2)CCO3)cc1 [Example 140]
[1]
  SHR AUC PO (Area Under the Curve of the fall in blood pressure over time): 105 mmHG · h
[2]
  EC50: 100 nM

## O=C(/C=C/c1ccc(OCCN2CCCC2)cc1)N1CCc2c([nH]c3ccccc23)C1c1ccc2c(c1)CCO2 (stereo not drawn) [Example 142]
[1]
  SHR AUC PO (Area Under the Curve of the fall in blood pressure over time): 74 mmHG · h
[2]
  EC50: 1500 nM

## CN1CCC[C@H]1COc1ccc(/C=C/C(=O)N2CCc3c([nH]c4ccccc34)[C@H]2c2ccc3c(c2)CCO3)cc1 [Example 156]
[1]
  SHR AUC PO (Area Under the Curve of the fall in blood pressure over time): 57 mmHG · h
[2]
  EC50: < 1000 nM

## CCN(CC)CCOc1ccc(/C=C/C(=O)N2CCc3c([nH]c4ccccc34)[C@H]2c2ccc3c(c2)CCO3)cc1 [Example 164]
[2]
  EC50: 1500 nM

## CC(COc1ccc(/C=C/C(=O)N2CCc3c([nH]c4ccccc34)[C@H]2c2ccc3c(c2)CCO3)cc1)N(C)C (stereo partly drawn) [Example 165]
[2]
  EC50: < 1000 nM

## CCN(C)CCOc1ccc(/C=C/C(=O)N2CCc3c([nH]c4ccccc34)[C@H]2c2ccc3c(c2)CCO3)cc1 [Example 175, (E)-(R)-1-[1-(2,3-Dihydrobenzofuran-5-yl)-1,3,4,9-tetrahydro-β-carbolin-2-yl]-3-(4-(2-(ethylmethylamino)ethoxy)phenyl)propene-1-one]
[1]
  SHR AUC PO (Area Under the Curve of the fall in blood pressure over time): 52 mmHG · h

## CN(C)C[C@@H](O)COc1ccc(/C=C/C(=O)N2CCc3c([nH]c4ccccc34)C2c2ccc3c(c2)CCO3)cc1 (stereo partly drawn) [Example 177, (E)-(R)-1-[1-(2,3-Dihydrobenzofuran-5-yl)-1,3,4,9-tetrahydro-β-carbolin-2-yl]-3-(4-(3-dimethylamino-2-hydroxypropoxy)phenyl)propene-1-one]
[1]
  SHR AUC PO (Area Under the Curve of the fall in blood pressure over time): 100 mmHG · h
[2]
  EC50: < 1000 nM

## CN(C)CCNc1ccc(/C=C/C(=O)N2CCc3c([nH]c4ccccc34)[C@H]2c2ccc3c(c2)CCO3)cc1 [Example 180]
[2]
  EC50: 3500 nM

## NCCOc1ccc(/C=C/C(=O)N2CCc3c([nH]c4ccccc34)[C@H]2c2ccc3c(c2)CCO3)cc1 [Example 181, (E)-(R)-1-[1-(2,3-Dihydrobenzofuran-5-yl)-1,3,4,9-tetrahydro-β-carbolin-2-yl]-3-(4-(2-aminoethoxy)phenyl)propene-1-one]
[1]
  SHR AUC PO (Area Under the Curve of the fall in blood pressure over time): 77 mmHG · h
[2]
  EC50: 2000 nM

## O=C(/C=C/c1ccc(O)cc1)N1CCc2c([nH]c3ccccc23)[C@H]1c1ccc2c(c1)CCO2 [Example 182, (E)-(R)-1-[1-(2,3-Dihydrobenzofuran-5-yl)-1,3,4,9-tetrahydro-β-carbolin-2-yl]-3-(4-hydroxyphenyl)propene-1-one]
[2]
  EC50: < 1000 nM

## CN1CCN(c2ccc(/C=C/C(=O)N3CCc4c([nH]c5ccccc45)[C@H]3c3ccc4c(c3)CCO4)cc2)CC1 [Example 183]
[2]
  EC50: 2000 nM

## CNCc1ccc(/C=C/C(=O)N2CCc3c([nH]c4ccccc34)[C@H]2c2ccc3c(c2)CCO3)cc1 [Example 184]
[2]
  EC50: 3000 nM

## O=C(/C=C/c1ccc(OCCN2CCCCC2)cc1)N1CCc2c([nH]c3ccccc23)[C@H]1c1ccc2c(c1)CCO2 [Example 188, (E)-(R)-1-[1-(2,3-Dihydrobenzofuran-5-yl)-1,3,4,9-tetrahydro-β-carbolin-2-yl]-3-(4-(2-piperidin-1-ylethoxy)phenyl)propene-1-one]
[1]
  SHR AUC PO (Area Under the Curve of the fall in blood pressure over time): 86 mmHG · h
[2]
  EC50: < 1000 nM

## CNCCOc1ccc(/C=C/C(=O)N2CCc3c([nH]c4ccccc34)[C@H]2c2ccc3c(c2)CCO3)cc1 [Example 191, (E)-(R)-1-[1-(2,3-Dihydrobenzofuran-5-yl)-1,3,4,9-tetrahydro-carbolin-2-yl]-3-[4-(2-methylaminoethoxy)phenyl]propene-1-one]
[1]
  SHR AUC PO (Area Under the Curve of the fall in blood pressure over time): 84 mmHG · h
[2]
  EC50: < 1000 nM

## CCCCC[C@H](O)/C=C/[C@H]1[C@H](O)CC(=O)[C@@H]1CCCCCCC(=O)O [alprostadil]
[4]
  efficacy in MED: not effective in all patients

## CN1CCc2cccc3c2[C@H]1Cc1ccc(O)c(O)c1-3 [apomorphine]
[4]
  efficacy in MED: neither compound has demonstrated efficacy across a broad range of subjects

## Cc1ccc(N(CC2=NCCN2)c2cccc(O)c2)cc1 [phentolamine]
[4]
  efficacy in MED: neither compound has demonstrated efficacy across a broad range of subjects

## CCCc1nn(C)c2c(=O)[nH]c(-c3cc(S(=O)(=O)N4CCN(C)CC4)ccc3OCC)nc12 [sildenafil]
[5]
  selectivity with respect to PDE6: little selectivity with respect to PDE6
[4]
  efficacy in MED: has shown efficacy in oral administration clinical trials for MED

## vasoactive intestinal polypeptide (VIP): vasoactive intestinal polypeptide (VIP) (HSDAVFTDNYTRLRKQMAVKKYLNSILN; ends and bridges not checked; UniProt P01282 125-152, looked up)
[4]
  efficacy in MED: active i.c.
